Marks after values point to notes of the source that are not given here.
What was measured:
[1] = test system: serum total bile acid (SBA); assay: Time to onset of activity of LUM001 on postprandial serum bile acids in dogs; assay type: in vivo, beagle dogs; conditions: for Serum bile acids, mean: fed at 0 min
Description: LUM001 was dissolved in water at concentrations that required the administration of 0.2 ml/kg of solution. Solutions were placed into gelatin capsules, Torpac Inc., size 13 Batch 594, East Hanover N.J., and administered orally.
Male beagle dogs were obtained from Covance Research Products, Cumberland Va. or Marshall Farms USA, Inc., North Rose N.Y. A total of 20 dogs, 1 to 5 years old, 6.8 to 15.6 kg body weight, were used in these experiments. The dogs were conditioned to a 12 hour light/dark cycle and maintained on a feeding restriction of 1 hour per day access to food (Richman Standard Certified Canine Diet #5007, PMI Nutrition, Inc., St. Louis Mo.) from 7 to 8 AM. They were trained to eat a special meal promptly within 20 minutes when presented (1 can. 397 g, Evanger's 100% Beef for Dogs, Evanger's Dog and Cat Food Co., Inc., Wheeling Ill., mixed with 50 g of sharp cheddar cheese.).
SBA was measured by an enzymatic assay. SBA values are expressed as μg of total bile acids/ml of serum.
To estimate the details of this plateau, 6 dogs were given a test meal and blood samples for SBA measurement were collected at −30, 0, 30, 60, 65, 70, 80, 90, 120, 180, 240, 360, 480, 720, 1410 and 1440 minutes from the time of feeding. Any remaining food was removed 20 min after it was first presented to the dogs. To establish a method for extending the elevated plateau of SBA, 6 dogs were given the meal at 0 hr and an additional ½ size meal again 4 hr after their first meal. Blood samples were taken at 0, 1, 2, 3, 4, 4.5, 6, 7 and 8 hr. The curves for SBA level vs time obtained in these experiments were used as references for determining blood sampling times in experiments with LUM001. Wherever possible, experimental design permitting, in experiments with test compound, each dog served as its own simultaneous control, and the mean 1 hr SBA value served as the reference to which all other mean values were compared.
LUM001 was administered at 0, 0.01, 0.05, 0.2 and 1 mg/kg, p.o. to dogs, n=6, 1 hr after feeding the standard experimental meal. Blood samples for SBA measurement were taken at −30, 0, 30, 60, 65, 70, 80, 90, 120 and 180 minutes from the time of feeding. Each dog served as its own control, and mean SBA levels were compared to the mean SBA level at 60 minutes.

[2] = Systemic exposure of LUM001 in patients under 18 years (study NB-00-02-014); assay type: in vivo, human; conditions: for Average serum drug exposure: day eight
Description: LUM001 has been administered to forty patients under the age of 18 years old. […] The drug was administered once-a-day (QD) in the morning for fourteen days. […] These doses are similar to those using to treat patients with Barrett's esophagus or GERD.

plasma bile acid = assay: Plasma bile acid concentrations in ZDF rats; assay type: in vivo; conditions: SC-435 1, 10 or 30 mg/kg; LUM002 0.3, 1, 3, 10 or 30 mg/kg; oral gavage twice a day, end of second week, n=4
Description: Male Zucker diabetic fatty rats (ZDF/GmiCrl-fa/fa) were purchased from Charles River (Raleigh, N.C.) and housed under controlled conditions (12:12 light-dark cycle, 24° C. and 50% relative humidity) with free access to rodent food (Purina 5008, Harlan Teklad, Indianapolis, Ind.). All rats arrived at seven weeks of age (±3 days). After a one-week acclimation period, rats were anesthetized with isoflurane (Abbott Laboratories, IL) and tail-vein blood samples were collected at 9 am without fasting. Blood glucose levels were measured using a glucometer (Bayer, Leverkusen, Germany). In order to ensure balanced treatment groups, ZDF rats were assigned to six treatment groups based upon baseline glucose: vehicle (0.5% HPMC, 0.1% Tween80) and five doses of 264W94 (0.001, 0.01, 0.1, 1, 10 mg/kg). All treatments were given via oral gavage twice a day and animals were followed for two weeks with blood samples collected from tail vein at the end of each week at 9 am without fasting. Fecal samples were collected for 24 hours during the second week of treatment.
Non-esterified fatty acids (NEFA), bile acids, and bile acids in fecal extraction were measured using the Olympus AU640 clinical chemistry analyzer (Beckman Coulter, Irving, Tex.).
Male ZDF rats (n=4) were administered vehicle, SC-435 (1, 10 or 30 mg/kg) or LUM002 (0.3, 1, 3, 10 or 30 mg/kg) by oral gavage twice a day for 2 weeks. Plasma bile acid levels were determined at the end of the second week. […] Data are expressed as mean values±SEM.

SMILES	Time to significantly lowered SBA levels after dosing ([1]; 0.05 mg/kg orally 1 hour after feeding) [h]	Serum bile acids, mean ([1]; 0.05 mg/kg p.o. at 60 min, 120 min)	Serum bile acids, mean ([1]; 0.05 mg/kg p.o. at 60 min, −30 min) [µg/mL]	Serum bile acids, mean ([1]; 0.2 mg/kg p.o. at 60 min, 30 min) [µg/mL]	Onset time to significant SBA lowering ([1]; 1 mg/kg vs ED50 dose 0.2 mg/kg)	Threshold dose, dog SBA model ([1]; administered orally 1 hour after feeding) [mg/kg]	Average serum drug exposure ([2]; Subject 0304, 1.0 mg QD (24.3 μg/kg)) [ng/mL]	Average serum drug exposure ([2]; Subject 0308, 1.0 mg QD (28.9 μg/kg)) [ng/mL]	Average serum drug exposure ([2]; Subject 0309, 1.0 mg QD (35.0 μg/kg)) [ng/mL]	Average serum drug exposure ([2]; Subject 0410, 2.5 mg QD (42.0 μg/kg)) [ng/mL]	Average serum drug exposure ([2]; Subject 0510, 5.0 mg QD (168.4 μg/kg)) [ng/mL]	Systemic exposure of LUM001 ([2]; patients under 18 years, QD, measured on day eight)	Plasma bile acid levels (plasma bile acid)
CCCCC1(CCCC)CS(=O)(=O)c2ccc(N(C)C)cc2[C@@H](c2ccc(OCc3ccc(C[N+]45CCN(CC4)CC5)cc3)cc2)[C@H]1O [LUM001]	1 to 2	6.5* μg/ml	1.4	9.1	did not shorten the onset time	0.05	0.0	0.0	0.0	0.0	0.0	confirmed to be minimally absorbed	
CCCC[C@]1(CC)CS(=O)(=O)c2ccc(N(C)C)cc2[C@@H](c2cccc(NC(=O)N[C@@H]3O[C@H](COS(=O)(=O)[O-])[C@@H](O)[C@H](OCc4ccccc4)[C@H]3O)c2)[C@H]1O.CCO.O.[K+] [LUM002, potassium((2R,3R,4S,5R,6R)-4-benzyloxy-6-{3-[3-((3S,4R,5R)-3-butyl-7-dimethylamino-3-ethyl-4-hydroxy-1,1-dioxo-2,3,4,5-tetrahydro-1H-benzo[b]thiepin-5-yl)-phenyl]-ureido}-3,5-dihydroxy-tetrahydro-pyran-2-ylmethyl)sulphate ethanolate, hydrate]													decreased for all doses

From US20140271734A1, “BILE ACID RECYCLING INHIBITORS FOR TREATMENT OF BARRETT'S ESOPHAGUS AND GASTROESOPHAGEAL REFLUX DISEASE” (LUMENA PHARMACEUTICALS, INC., priority 2013, published 2014)
